Reference: US12110287B2, “Heterocyclic derivatives as Nav1.7 and Nav1.8 blockers” (RaQualia Pharma Inc., priority 2018, dated 2024)

What was measured:
[1] = target: T1, Nav1.7 (Homo sapiens, UniProt Q15858); experiment: EFS-FRET assay; type: cell-based; parameters: expressed in transfected cells; host or cells: CHO (Chinese hamster ovary) cells; conditions: CHO cells expressing human Nav1.7 channels, read-out: IC50 against Nav1.7
Experimental: This screen is used to determine the effects of compounds on human Nav1.7 channels, utilizing electrical field stimulation (EFS) system in 96-well plate format on FDSS (Hamamatsu Photonics) platform. The changes of membrane potential are monitored with FRET dye pair, DiSBAC2(3) and PTS18.
CHO (Chinese hamster ovary) cells expressing human Nav1.7 channels are grown in T225 flasks, in a 5% CO2 humidified incubator to about 80% confluence. Media composition consists of HAM/F12 with Glutamax I, 10% FCS, 100 units/mF penicillin and 100 microgram/mF hygromycin.
• Seed each cell lines (1×10^5 cells/well) into 96-well plates prior to experimentation. • Incubate at 37° C. in 5% CO2 for 24 hours. • Wash each well with assay buffer (140 mM NaCl, 4.5 mM KCl, 10 mM D-Glucose, 2 mM CaCl2, 1 mM MgCl2, 10 mM HEPES, pH 7.4 adjusted with NaOH) twice. • Add 1st loading solution containing 10 microM PTS18 and 0.06% Pluronic F-127 in assay buffer. • Incubate the plate at rt in dark for 1 hour. • Remove 1st loading solution and add 2nd loading solution containing 12.5 microM DiSBAC2(3), 1.25 mM Xylene Fast Yellow and 0.0075% Pluronic F-127 in assay buffer. • Place the plate under the dark at rt for 25 minutes. • Add compound solutions into the assay plate. • Set the assay plate in FDSS and place an EFS device on the plate. • Measure EFS-induced fluorescent response by FDSS.
The data are analyzed and reported as normalized ratios of intensities measured at […]. The process of calculating these ratios is performed as follows:
This analysis is performed using a computerized specific program designed for FDSS generated data. Fluorescence ratio values are plotted using XLfit to determine an IC50 value for each compound.

[2] = target: T1, Nav1.7; experiment: Electrophysiology assay (whole cell patch clamp), affinity to inactivated state; type: cell-based; parameters: expressed in transfected cells; conditions: affinity to inactivated state (Kinact), read-out: activity (Ki) against Nav1.7
Experimental: Whole cell patch clamp recording is used to assess the efficacy or selectivity of Na (Sodium) channel blocker on human voltage gated sodium channels. Na channel expressing cells are dissociated by 0.05% Trypsin-EDTA or Accutase, and then seeded on cover glass for 2-24 hours.
Manual patch clamp recordings are conducted at rt using the voltage-clamp amplifier (Axon Instruments or HEKA electronik). Electrodes are pulled with P-97 electrode puller (Sutter Instrument). The electrode resistances are 1-3 MOhm when intercellular solution is filled. Currents are lowpass filtered between 2-5 kHz and digitally sampled at 10 kHz. […]
After whole-cell configuration is achieved, cell is monitored at least 10 minutes to allow cell dialysis with pipette solution. […]
Peak currents evoked by Test 1 and Test 2 pulses are sampled with Clampex (Axon Instruments) or Pulse+Pulse Fit (HEKA). Averaged peak currents under vehicle or test compounds are calculated from 3 data points at end of each condition.
Inhibitory effects (% inhibition) on peak currents at Test 1 or Test 2 pulse are plotted against test concentration and IC50 values at Test 1 (Closed IC50) or Test 2 (Inactivated IC50) are calculated with Hill equation, respectively. […]
After whole-cell configuration is achieved, the cell is monitored at least 10-15 minutes to allow cell dialysis with pipette solution. […]

T1 sequence (Q15858 whole entry): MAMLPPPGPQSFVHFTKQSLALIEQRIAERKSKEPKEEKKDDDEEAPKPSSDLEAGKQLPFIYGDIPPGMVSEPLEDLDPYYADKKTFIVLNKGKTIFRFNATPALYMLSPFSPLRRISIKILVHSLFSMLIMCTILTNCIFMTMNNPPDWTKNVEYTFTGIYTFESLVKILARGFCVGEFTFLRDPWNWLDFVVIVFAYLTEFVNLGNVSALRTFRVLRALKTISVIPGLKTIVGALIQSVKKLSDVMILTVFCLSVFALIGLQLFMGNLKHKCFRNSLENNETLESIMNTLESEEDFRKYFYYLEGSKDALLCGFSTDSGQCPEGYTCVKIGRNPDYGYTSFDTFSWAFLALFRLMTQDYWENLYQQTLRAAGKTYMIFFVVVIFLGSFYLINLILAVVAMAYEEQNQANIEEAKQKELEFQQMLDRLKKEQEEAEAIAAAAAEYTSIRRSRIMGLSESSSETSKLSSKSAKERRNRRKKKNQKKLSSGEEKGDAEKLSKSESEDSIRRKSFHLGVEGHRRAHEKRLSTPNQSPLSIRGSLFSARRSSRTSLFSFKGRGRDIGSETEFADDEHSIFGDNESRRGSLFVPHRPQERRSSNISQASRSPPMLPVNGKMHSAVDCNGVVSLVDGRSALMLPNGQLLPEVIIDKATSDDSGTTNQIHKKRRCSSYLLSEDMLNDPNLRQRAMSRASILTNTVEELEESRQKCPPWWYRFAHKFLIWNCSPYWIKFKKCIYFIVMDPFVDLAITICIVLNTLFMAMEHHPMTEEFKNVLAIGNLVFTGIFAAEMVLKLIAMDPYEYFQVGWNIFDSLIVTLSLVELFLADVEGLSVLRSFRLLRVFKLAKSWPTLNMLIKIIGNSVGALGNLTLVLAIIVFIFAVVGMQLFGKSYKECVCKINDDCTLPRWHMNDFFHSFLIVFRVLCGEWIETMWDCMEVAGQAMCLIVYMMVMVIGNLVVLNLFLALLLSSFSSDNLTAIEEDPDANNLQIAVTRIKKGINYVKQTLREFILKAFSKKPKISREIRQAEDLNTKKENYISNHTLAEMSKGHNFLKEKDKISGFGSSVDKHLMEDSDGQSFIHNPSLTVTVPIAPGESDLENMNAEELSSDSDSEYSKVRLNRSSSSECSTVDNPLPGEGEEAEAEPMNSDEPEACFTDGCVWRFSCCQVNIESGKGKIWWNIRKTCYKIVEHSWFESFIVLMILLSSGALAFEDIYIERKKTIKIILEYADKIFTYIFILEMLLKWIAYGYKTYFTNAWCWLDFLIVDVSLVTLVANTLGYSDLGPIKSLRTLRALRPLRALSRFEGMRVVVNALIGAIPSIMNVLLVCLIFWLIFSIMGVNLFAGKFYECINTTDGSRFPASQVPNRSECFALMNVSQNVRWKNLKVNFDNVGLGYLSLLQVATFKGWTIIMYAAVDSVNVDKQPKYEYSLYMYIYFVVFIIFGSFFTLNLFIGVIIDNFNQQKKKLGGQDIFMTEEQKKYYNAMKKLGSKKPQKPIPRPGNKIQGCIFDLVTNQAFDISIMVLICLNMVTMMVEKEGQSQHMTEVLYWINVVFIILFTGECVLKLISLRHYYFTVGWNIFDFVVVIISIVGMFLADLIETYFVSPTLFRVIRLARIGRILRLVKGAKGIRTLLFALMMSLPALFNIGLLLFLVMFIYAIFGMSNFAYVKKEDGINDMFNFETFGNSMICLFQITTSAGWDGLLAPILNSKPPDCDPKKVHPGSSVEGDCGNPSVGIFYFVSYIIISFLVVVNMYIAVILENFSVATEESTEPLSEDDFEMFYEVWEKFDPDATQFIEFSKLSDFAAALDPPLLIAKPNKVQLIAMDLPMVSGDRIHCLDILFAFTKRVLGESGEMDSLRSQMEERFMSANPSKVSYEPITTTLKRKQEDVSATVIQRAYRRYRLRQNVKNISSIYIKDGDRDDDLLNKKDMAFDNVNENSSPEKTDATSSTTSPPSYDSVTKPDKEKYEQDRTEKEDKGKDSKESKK

Compound | IC50 [1] [nM] | Ki [2] [nM]
O=C(N[C@@H]1CCN(c2ncc(C(F)(F)F)cc2Cl)C1)c1ccnc(NC(=O)C2CC2)c1 [Example 9] | < 500 | < 200
CCC(=O)Nc1cc(C(=O)N[C@@H]2CCCN(c3ccc(OC(F)(F)F)cc3Cl)C2)ccn1 [Example 129] | < 500 | 
Cc1cc(C(=O)N[C@@H]2CCCN(c3ccc(OC(F)(F)F)cc3Cl)C2)nc(NC(=O)C2CC2)n1 [Example 132] | < 500 | 
